Experimental findings from patent US20110118350A1, “COMPOSITION FOR PREVENTING CARDIOVASCULAR EVENT IN HIGH-RISK PATIENT” (MOCHIDA PHARMACEUTICAL CO., LTD., priority 2008, published 2011) are described below.

The experiment is described as follows: Plasma OA/SA ratio in DELIS trial patients (fatty acid composition of plasma). The format is in vivo, human. Conditions: for OA/SA ratio in plasma, Average: statin base drug. The source says: The ratio of oleic acid (OA) to stearic acid (SA) in plasma can be calculated by collecting blood from a patient and measuring the levels of the individual fatty acids such as OA and SA or the ratio of the individual fatty acids in the total fatty acids by, for example, gas chromatography. The OA/SA ratio can be also calculated from the individual fatty acid levels obtained by performing a clinical test item, that is, fractionation of fatty acids in total lipids which can be performed by, for example, SRL, Inc. The measurement method and calculation method are not particularly limited. The fatty acid fractionation into 24 fractions is a testing method which involves fractionating fatty acids including unsaturated fatty acids into specific 24 fractions and quantitatively determining the fractions by gas chromatography. More specifically, the plasma fatty acids are extracted by the method of, for example, Folch et al. (Folch J. et al., J. Biol. Chem. 226, 497-509 (1957)). It is possible to use tricosanoic acid (C23:0) as an internal standard, to convert each fatty acid into a methyl ester by addition of boron trifluoride and methanol, and to quantitatively determine the methyl ester of each fatty acid by measurement using a gas chromatograph such as SHIMAZU GC-17A (Shimadzu Corporation) and a capillary column such as BPX70 (with an internal diameter of 0.25 mm and a length of 30 m; SGE International Ltd.). However, this is not the sole method of the invention. This trial corresponds to a partial analysis of the results obtained in DELIS (Japan EPA Lipid Intervention Study) which is a large scale clinical trial of high purity EPA preparation which was presented in the American College of Cardiology 2005 Annual Meeting (for general information on DELIS, see Lancet, vol. 369, pp. 1090-1098 (2007)). […]

On to `CC/C=C\C/C=C\C/C=C\C/C=C\C/C=C\CCCC(=O)OCC` [EPA-E, ethyl icosapentate], for which the “change of OA/SA ratio in plasma” value (after the administration of EPA-E) is “significant decrease”. For the same molecule, the “OA/SA ratio in plasma, Average” value is, setting by setting: (before start of trial) 2.96; (during whole observation period, Epadel 600 mg 3 times a day oral) 2.78.
